Literature values as cited in patent publication US20010000228A1, “Use of a modified baculovirus containing exogenous nucleic acid for the manufacture of a medicament for delivering said nucleic acid to the hepatocytes” (IMPERIAL COLLEGE INNOVATIONS LIMITED, priority 1997, published 2001).

System: HBV
Settings: therapy against HBV

Interferon α
cases in which therapy is effective: around 30%
